For this test, the system named is iPSC-ECs. The test is described as follows: Senescence associated β-galactosidase staining. It is filed as cell-based. The protocol:
Nitric oxide (NO) production was assessed via 4,5-diaminofluorescein.diacetate (DAF 2-DA) assay (Life Technologies). Cell mitogenic effect in response to VEGF (100 ng/ml) was assessed via MTT assay (Sigma-Aldrich) after treating cells in serum-free (starvation) medium, or starvation medium containing 100 ng/ml VEGF for 24 hours. Cell proliferation was determined by counting cell number every seven days after lentiviral transduction using a hemocytometer by excluding dead cells with Trypan blue. […] All results were normalized to cell number via Alamar blue assay (Sigma-Aldrich).Cellular senescence assay kit (Cell Signaling Technology, Danvers, Mass.) was used to stain for senescence associated β-galactosidase (β-gal) in the presence or absence of Ex-527 (10 μM), a SIRT1 inhibitor, and the percentage of β-gal positive cells was quantified with ImageJ. […]
Cellular senescence assay kit (Cell Signaling Technology, Danvers, Mass.) was used to stain for β-galactosidase (β-gal) in the presence or absence of Ex-527 (10 μM), a SIRT1 inhibitor (18), and the percentage of β-gal positive cells was quantified with ImageJ. […] Cell proliferation was determined by counting cell number every seven days after lentiviral transduction using a hemocytometer by excluding dead cells with Trypan blue. […] NO production was assessed via 4,5-diaminofluorescein.diacetate (DAF 2-DA) assay (Life Technologies). […]

Molecules are shown by their SMILES.

Regarding `NC(=O)C1CCCc2c1[nH]c1ccc(Cl)cc21` (centres unmarked) [Ex-527], the “β-gal+ (senescent) cells” value (10 μM Ex-527, LV-empty transduced cells, passage 6) was found to be 56.0±6.2%. The “effect on percentage of senescent cells” value (10 μM Ex-527, all lentiviral groups) was “higher percentage of senescent cells in all groups”.
